One data set concerns the target T1, hPPAR δ (Homo sapiens, UniProt Q03181).
T1 construct: expressed in transfected cells; host or cells: CV-1 cells
T1 sequence (Q03181 211-439 limits assumed): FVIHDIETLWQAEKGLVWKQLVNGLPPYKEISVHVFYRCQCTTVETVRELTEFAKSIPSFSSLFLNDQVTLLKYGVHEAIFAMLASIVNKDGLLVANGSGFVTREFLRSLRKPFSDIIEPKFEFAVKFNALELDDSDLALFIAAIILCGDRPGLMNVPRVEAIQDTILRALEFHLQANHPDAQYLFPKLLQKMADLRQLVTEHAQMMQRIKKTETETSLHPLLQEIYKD
Kind of data set: Transient transfection (transactivation) assay in CV-1 cells, hPPAR delta. The note with it: GAL4 chimeric receptor, SPAP reporter. It is filed as cell-based. The source says:
(§1) Compounds were screened for functional potency in transient transfection assays in CV-1 cells for their ability to activate the PPAR subtypes (transactivation assay). A previously established chimeric receptor system was utilized to allow comparison of the relative transcriptional activity of the receptor subtypes on the same target gene and to prevent endogenous receptor activation from complicating the interpretation of results. […] The ligand binding domains for murine and human PPAR alpha, PPAR gamma, and PPAR delta were each fused to the yeast transcription factor GAL4 DNA binding domain. CV-1 cells were transiently transfected with expression vectors for the respective PPAR chimera along with a reporter construct containing five copies of the GAL4 DNA binding site driving expression of secreted placental alkalin phosphatase (SPAP) and beta-galactosidase. After 16 h, the medium was exchanged to DME medium supplemented with 10% delipidated fetal calf serum and th test compound at the appropriate concentration. After an additional 24 h, cell extracts were prepared and assayed for alkaline phosphatase and β-galactosidase activity. […] The positive control in the hPPAR alpha assays was 2-methyl-2-[4-{[(4-methyl-2-[4-trifluoromethylphenyl]-thiazol-5-yl-carbonyl)amino]methyl}-phenoxy]propionic acid. The positive control for PPAR delta assays was 2-{2-methyl-4-[({4-methyl-2-{trifluoromethyl)phenyl]-1,3-thiazol-5-yl}methyl)sulfanyl]phenoxy}acetic acid.

The next data set concerns the target T2, hPPAR α (Homo sapiens, UniProt Q07869).
T2 construct: expressed in transfected cells; host or cells: CV-1 cells
T2 sequence (Q07869 239-466 limits assumed): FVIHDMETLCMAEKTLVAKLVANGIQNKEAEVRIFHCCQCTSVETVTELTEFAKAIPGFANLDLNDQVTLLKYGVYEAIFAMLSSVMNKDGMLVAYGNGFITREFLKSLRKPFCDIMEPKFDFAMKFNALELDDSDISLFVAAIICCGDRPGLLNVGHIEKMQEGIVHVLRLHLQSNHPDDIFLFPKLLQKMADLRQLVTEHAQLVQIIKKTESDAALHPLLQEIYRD
The experiment in a line: Transient transfection (transactivation) assay in CV-1 cells, hPPAR alpha. It is filed as cell-based. The note with it: GAL4 chimeric receptor, SPAP reporter.
Text: as §1

A further data set concerns the target T3, hPPAR γ (Homo sapiens, UniProt P37231).
T3 construct: expressed in transfected cells; host or cells: CV-1 cells
T3 sequence (P37231 238-503 limits assumed): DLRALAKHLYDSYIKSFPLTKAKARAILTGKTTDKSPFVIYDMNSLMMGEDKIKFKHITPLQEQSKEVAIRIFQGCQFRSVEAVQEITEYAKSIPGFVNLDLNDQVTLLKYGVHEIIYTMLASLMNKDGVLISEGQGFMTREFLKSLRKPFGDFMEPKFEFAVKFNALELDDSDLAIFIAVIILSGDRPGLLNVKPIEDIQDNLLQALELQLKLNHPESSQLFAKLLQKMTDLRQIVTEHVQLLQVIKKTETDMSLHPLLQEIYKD
Kind of data set: Transient transfection (transactivation) assay in CV-1 cells, hPPAR gamma. It is filed as cell-based. Particulars: GAL4 chimeric receptor, SPAP reporter.
Text: as §1

As usually defined, the EC50 is the concentration at which the effect is half-maximal. Lower therefore signals higher potency in that assay. Regarding `Cc1cc(O[C@@H](C)c2sc(-c3ccc(C(F)(F)F)cc3)nc2C)ccc1OC(C)(C)C(=O)O` [Example 9, (S)-2-methyl-2-(2-methyl-4-{1-[4-methyl-2-(4-trifluoromethylphenyl)-thiazol-5-yl]ethoxy}-phenoxy)-propionic acid], the figures for the EC50 on hPPAR δ, on hPPAR α and at hPPAR γ were 3 nM, 16 nM and 7000 nM, respectively.

As to `Cc1cc(O[C@H](C)c2sc(-c3ccc(C(F)(F)F)cc3)nc2C)ccc1OC(C)(C)C(=O)O` [Example 11, (R)-2-methyl-2-(2-methyl-4-{1-[4-methyl-2-(4-trifluoromethylphenyl)-thiazol-5-yl]ethoxy}-phenoxy)-propionic acid], the EC50 amounted to 0.7 nM at hPPAR δ, 10 nM at hPPAR α and 300 nM at hPPAR γ.

A word on the melting point: it is the temperature of the solid-liquid transition. The molecule `Cc1cc(OC(C)c2sc(-c3ccc(C(F)(F)F)cc3F)nc2C)ccc1OC(C)(C)C(=O)O` (stereo not shown) [Example 19, 2-(4-{1-[2-(2-fluoro-4-trifluoromethyl-phenyl)-4-methyl-thiazol-5-yl]-ethoxy}-2-methyl-phenoxy)-2-methyl-propionic acid] yielded a melting point of 133 °C.

`CC[C@@H](Oc1ccc(OC(C)(C)C(=O)O)c(C)c1)c1sc(-c2ccc(C(F)(F)F)cc2)nc1C` [Example 29, (R)-2-methyl-2-(2-methyl-4-{1-[4-methyl-2-(4-trifluoromethyl-phenyl)thiazol-5-yl]propoxy}-phenoxy)-propionic acid]: the EC50 at hPPAR δ came to 1.5 nM; at hPPAR α, 9 nM; at hPPAR γ it was 240 nM.

As to `CC[C@H](Oc1ccc(OC(C)(C)C(=O)O)c(C)c1)c1sc(-c2ccc(C(F)(F)F)cc2)nc1C` [Example 31, (S)-2-methyl-2-(2-methyl-4-{1-[4-methyl-2-(4-trifluoromethyl-phenyl)-thiazol-5-yl]propoxy}-phenoxy)-propionic acid], the half-maximal effective concentration (EC50) at hPPAR δ came out at 1.7 nM; at hPPAR α, 5 nM; at hPPAR γ, 660 nM.

For the origin of these results see patent publication US7105551B2, “Thiazole derivatives for treating PPAR related disorders” (SmithKline Beecham Corporation, priority 2000, dated 2006).
